Common to all, as to assay: NCI tumour cell line growth inhibition, 48 h
Assay [1] relates to 786-0 renal.
The subject of assay [2] is CAKI-1 renal.
The subject of assay [3] is CCRF-CEM leukemia.
For assay [4], the system named is MDA-MB-231 breast.
Assay [5] has as its system MDA-MB-435.
Assay [6] has as its system NCI-H460 lung.
Assay [7] concerns RXF 393 renal.
For assay [8], the system named is SF-539 CNS.
For assay [9], the system named is OVCAR-5 ovarian.

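48-hour exposure; five concentrations; linearly interpolated endpoints. Here, GI50 denotes the concentration required for 50% inhibition of growth. At the TGI there is no net growth.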

As for `COC(=O)c1ccc(-c2nc3cc(Cl)c(Cl)cc3nc2C#N)cc1`, the GI50 is greater than 100 µM in [1]; greater than 100 µM in [2]; 31.6 µM in assay [3]; greater than 100 µM in [4]; greater than 100 µM in assay [5]; greater than 100 µM in assay [6]. Moreover, the GI50 in assay [7] and in assay [8] was greater than 100 µM in each case. Further, the TGI in assay [1], in assay [2], in assay [3], in [4], in assay [5] and in [6] was greater than 100 µM each time. For the same compound, the TGI in [7] and in [8] was greater than 100 µM in each case.
`COc1ccc(C23C(=O)c4ccccc4N2O[C@H]2C(=O)N(c4ccccc4)C(=O)[C@H]23)cc1` (some centres undefined): the TGI in assay [1], in [2], in assay [3], in assay [6], in assay [9] and in assay [7] was greater than 100 µM in each case. In assay [8], this compound yielded a TGI greater than 100 µM.
With `CCCCCCCCCCCc1nnc(N)o1`, the TGI in [1], in [6], in assay [9] and in assay [8] was greater than 100 µM throughout.
For the compound `O=C(c1ccccc1)c1ccccc1-c1ccccc1`, the GI50 in assay [1] is 10.6 µM; in assay [2], 1.52 µM; in [4], 5.14 µM; in assay [5], 0.325 µM; in assay [6] it was 3.35 µM; in [9], 14.6 µM. The GI50 in assay [7] is 3.17 µM; in assay [8], 3.06 µM. For the same compound, the TGI in assay [1] is 90.7 µM; in assay [2] it was 7.85 µM; in [4], greater than 100 µM; in [5], 7.87 µM; in [6], 18.2 µM; in assay [9] it was greater than 100 µM. For the same compound, the figures for the TGI in assay [7] and in assay [8] were 22.7 µM and 15.3 µM, respectively.
Take `O=C(NCCCCNc1cccccc1=O)OCc1ccccc1`: the TGI in assay [1], in assay [2], in assay [3], in assay [6] and in [9] was greater than 100 µM throughout.
Turning to `CCOC(=O)N1CCN(/[N+]([O-])=N/Oc2ccc([N+](=O)[O-])cc2[N+](=O)[O-])CC1`, the GI50 in [1] is 0.322 µM; in assay [2], 0.521 µM; in assay [3] it was 0.158 µM; in assay [4] it was 1.99 µM; in [5], 0.315 µM; in assay [6], 4.41 µM. The results for the GI50 in assay [9], in [7] and in assay [8] were 2.16 µM, 1.95 µM and 0.424 µM, respectively. Besides, the TGI in [1] amounted to 1.64 µM; in assay [2], 1.96 µM; in [3], 12.2 µM; in [4], 7.08 µM; in assay [5], 2.98 µM; in assay [6], 18 µM. Moreover, the TGI stood at 9.09 µM in [9], 5.9 µM in [7] and 20.9 µM in assay [8].
For `O=C(O)CCC(=O)N1c2ccccc2CC1c1c[nH]c2ccccc12` (centres undefined), the TGI in [1], in assay [2], in [3], in assay [6], in [9] and in assay [7] was greater than 100 µM throughout. This compound also registered a TGI in [8] greater than 100 µM.
Regarding `CN(/N=C/c1cccc2cccnc12)c1ccc([N+](=O)[O-])cc1[N+](=O)[O-]`, the TGI in [1] is 35.8 µM; in assay [2], 64.9 µM; in assay [3], greater than 100 µM; in assay [4], 56.8 µM; in [5], greater than 100 µM; in assay [6], greater than 100 µM. Besides, the results for the TGI in assay [9], in assay [7] and in assay [8] were greater than 89.6 µM, 40.9 µM and 32.1 µM, respectively.
Regarding `CCN(CC)c1c(C(=O)/C=C/c2ccc(Cl)cc2)c(-c2ccccc2)nn(C)c1=O`, the TGI in [1] was determined as 3.5 µM; in [2], 21.5 µM; in [3] it was 8.82 µM; in [6] it was 3.67 µM; in [9], 3.23 µM; in [7], 2.8 µM.
Take `C/C=C(\C)C(=O)NC1=CC[C@@]2(C)C(=CCC3C2CC[C@@]2(C)C3CC[C@@H]2C(C)N(C)C)C1=O` (some centres undefined): the GI50 in [1] was 2.54 µM; in assay [2], 2.86 µM; in assay [3], 2.58 µM; in [4], 3.14 µM; in [5], 2.35 µM; in [6], 2.06 µM. For the same compound, the GI50 is 4.78 µM in assay [9], 1.56 µM in assay [7] and 1.62 µM in assay [8]. Further, the TGI was found to be 7.45 µM in assay [1]; 11.4 µM in assay [2]; 15.3 µM in assay [3]; 9.99 µM in assay [4]; 7.08 µM in assay [5]; 4.98 µM in assay [6]. Besides, the figures for the TGI in assay [9], in assay [7] and in assay [8] were 25.4 µM, 4.53 µM and 3.22 µM, respectively.
Take `O=C1N(C2CCCCC2)CC12CCCCC2`: the TGI in [1], in assay [3], in [6], in assay [7] and in assay [8] was greater than 100 µM throughout.
Turning to `CC(=O)NC1C(OC[C@@H](CC(=O)N[C@@H](CC(=O)O)CC(=O)N[C@H](CC(=O)N[C@@H](CCCN)CC(=O)N[C@@H](CCCN)CC(=O)N[C@H](CC(N)=O)C(C)C)C(C)C)NC(=O)C[C@@H](N)C(C)C)OC(CO)C(O)C1O` (some centres undefined), the GI50 in [1], in assay [2], in [3], in assay [4], in assay [5] and in assay [6] was greater than 100 µM throughout. The GI50 in [9], in assay [7] and in assay [8] was greater than 100 µM throughout. The TGI in [1], in assay [2], in assay [3], in assay [4], in [5] and in assay [6] was greater than 100 µM in each case. Moreover, the TGI in [9], in [7] and in assay [8] was greater than 100 µM each time.

For the origin of these results see PubChem BioAssay (NCI).
